“Also recorded” adds a separate entry of the source.
Test system: OVA evoked asthma in sensitized guinea pigs
Assay: Airway resistance and dynamic pulmonary compliance after inhalation in OVA sensitized guinea pigs; on change of Raw and Cdyn at resting state after inhalation: unit not given here
Type: in vivo
Conditions: for change of Raw and Cdyn at resting state after inhalation: before OVA challenge; for protection against asthma attack by antigen (OVA) challenge: pretreatment by inhalation about three minutes before OVA challenge
Method: Sensitization of animals: Ovalbumin (10 μg/ml) was injected into guinea-pigs subcutaneously and coincidentally with an intraperitoneal injection of B. pertussis vaccine. Identical injection of ovalbumin and adjuvant were made day 15 and 21 days later. On day 28th the animals were examined and used for studies.
Test Methods: The sensitized guinea pigs wer anaethetized. A cannula was inserted into the trachea. A plueral cannula was inserted into pleural space through the chest wall. Airway resistance (Raw) and dynamic pulmonary compliance (Cdyn) were measured by using the signals of intraplueral pressure, airflow and tidal volume.
The animals were restreined in closed chamber and nebulized R-bambuterol or S-bambuterol were inhaled at the dose of 126 μg/kg. After three minutes conditioning, the animals were then challenged with nebulized OVA to evoke asthma. Airway resistance (Raw) and dynamic pulmonary compliance (Cdyn) were measured before and after evoking asthma.

With CN(C)C(=O)Oc1cc(OC(=O)N(C)C)cc([C@@H](O)CNC(C)(C)C)c1 [R-bambuterol] the “change of Raw and Cdyn at resting state after inhalation” value was “reduced airway resistance and enhanced pulmonary dynamic compliance”, the “change of Raw and Cdyn at resting state after inhalation” value (listed as R-Bambuterol) was “no significant changes both in Raw and Cdyn” and the “protection against asthma attack by antigen (OVA) challenge” value was “significant anti-asthma effects; also recorded: fully protection against the asthma attack”. The “protection against asthma attack by antigen (OVA) challenge” value (listed as R-BM) was “full protection”.
